Measured values as given in patent US12545637B2, “Extrahepatic targeted cationic lipid compound with high efficiency and low toxicity and its composition” (BEIJING YOUCARE KECHUANG PHARMACEUTICAL TECHNOLOGY CO., LTD., priority 2023, dated 2026).

Legend:
[1] = Particle size and polydispersity index (PDI) of lipid nanoparticles by dynamic light scattering; format: physicochemical
Protocol: The particle size and polydispersity index (PDI) were determined by dynamic light scattering using Malvern laser particle size analyzer.
10 μL of the liposome solution was weighed, diluted to 1 mL with RNase-free deionized water, and added to the sample pool. Each sample was measured in triplicate. The measurement conditions were: […] scattering angle, and 25° C.

293T cells [2] = test: Fluorescent detection of Fluc-mRNA (cell transfection efficiency of LNP formulations); format: cell-based
293T cells [3] = test: as above; format: cell-based; remark: listed apart in the source
293T cells [4] = test: Cell transfection test of LNP formulation of eGFP-mRNA (optimization of preparation conditions); format: cell-based
Protocol: The cationic lipid compound YK-407 synthesized in Example 1 was dissolved in ethanol with DSPC (AVT (Shanghai) Pharmaceutical Technology Co., Ltd.), cholesterol (AVT (Shanghai) Pharmaceutical Technology Co., Ltd.) and DMG-PEG2000 according to a molar ratio of 49:10:39.5:1.5, respectively, to prepare an ethanol lipid solution. The ethanol lipid solution was quickly added to citrate buffer (pH=4-5) by ethanol injection method, and vortexed for 30s for later use. eGFP-mRNA was diluted in citrate buffer (pH=4-5) to give an aqueous mRNA solution. A certain volume of liposome solution and mRNA aqueous solution were used to prepare liposomes at weight ratios of total lipids to mRNA of 5:1, 10:1, 15:1, 20:1, 30:1 and 35:1, respectively. The mixtures were sonicated at 25° C. for 15 min (with an ultrasonic frequency of 40 kHz and an ultrasonic power of 800 W). The resulted liposomes were diluted to 10 times volume with PBS, and then ultrafiltered with a 300KDa ultrafiltration tube to remove ethanol. Then the volume was fixed to a certain volume with PBS to give an LNP formulation encapsulating eGFP-mRNA using cationic lipid YK-407/DSPC/cholesterol/DMG-PEG2000 (49:10:39.5:1.5 in molar percentage).
The LNP formulation encapsulating eGFP-mRNA was prepared according to the method in 1, wherein the molar ratios of cationic lipid YK-407 to neutral lipid DSPC were 1:1, 3:1, 3.5:1, 4:1, 4.5:1, 4.9:1, 10:1, 15:1 and 20:1.
The LNP formulation encapsulating eGFP-mRNA was prepared according to the method in 1, wherein the cationic lipid in the carrier was YK-407, and the molar ratios of the polymer-conjugated lipid DMG-PEG2000 to the carrier were 0.5%, 1.5%, 3.5%, 5%, 10% and 15%, respectively.
The LNP formulation encapsulating eGFP-mRNA was prepared according to the method in 1, wherein the molar ratios of cationic lipid YK-407, neutral lipid DSPC, structured lipid cholesterol and polymer-conjugated lipid DMG-PEG2000 were 75:5:15:5, 49:10:39.5:1.5, 45:10:43.5:1.5, 45:25:20:10, 40:10:48.5:1.5, 35:10:53.5:1.5 and 25:5:65:5, respectively.
Cell recovery and passage: 293T cells were recovered, cultured in a culture dish, and passaged to the required number of cells.
Seeding plate: The cells in the culture dish were digested and counted. Cells were spread in a 96-well plate at 10,000 cells per well and in a 12-well plate at 150,000 cells per well. Cells were cultured overnight until the cells adhered to the wall.
Cell transfection test: The LNP formulation containing 1.5 μg of eGFP-mRNA prepared in Example 2 (the cationic lipid in the carrier was YK-407) and the Lipofectamin 3000 formulation of eGFP-mRNA were added respectively to the cell culture medium of the 12-well plate, and further incubated for 24 hours. The transfection efficiency of different samples was then investigated according to the fluorescence intensity by observing with a fluorescence microscope.

293T cells [5] = test: Cell survival rate assay (CCK-8); format: cell-based
Method in brief: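 293T cells seeded at 10,000 cells/well, cultured overnight, then exposed 24 h to LNP carrying 1.5 μg Fluc-mRNA (cationic:neutral:structured:PEG-type lipid 49:10:39.5:1.5) or Lipofectamine 3000. Viability read by CCK-8, 1 h incubation, absorbance at 450 nm.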

CCCCCCCCC(CCCCCCCC)COC(=O)CCCCCN(CCCO)CCCN(CCCO)CCCCCC(=O)OCC(CCCCCCCC)CCCCCCCC [YK-423, di(2-octyldecyl) 6,6′-(propan-1,3-diyl-bis((3-hydroxypropyl)azanediyl))dihexanoate]
PDI ([1]; LNP formulation of the cationic lipid, 25° C.): 11.7% | Particle size ([1]; LNP formulation of the cationic lipid/DSPC/cholesterol/DMG-PEG2000 49:10:39.5:1.5, 25° C.): 175 nm | Relative light unit (RLU) (293T cells [2]; LNP with 0.3 μg Fluc-mRNA, 96-well plate, 24 hours): 6227115 RLU | cell transfection efficiency, times that of YK-415 (293T cells [2]; ratio vs YK-415): 20.89 | cell transfection efficiency, times that of YK-417 (293T cells [2]; ratio vs YK-417): 53.09 | cell transfection efficiency, times that of YK-418 (293T cells [2]; ratio vs YK-418): 55.97 | cell transfection efficiency, times that of YK-424 (293T cells [2]; ratio vs YK-424): 2.16 | RLU value, times that of compound 21 (293T cells [2]; ratio vs compound 21): 4.12 | RLU value, times that of compound 23 (293T cells [2]; ratio vs compound 23): 4.44 | RLU value, times that of ALC-0315 (293T cells [3]; ratio vs ALC-0315): 2.84 | RLU value, times that of HHMA (293T cells [3]; ratio vs HHMA): 3.00 | RLU value, times that of Lipofectamine 3000 (293T cells [3]; ratio vs Lipofectamine 3000): 5.19 | RLU value, times that of YK-009 (293T cells [3]; ratio vs YK-009): 1.21 | RLU value, times that of YK-405 (293T cells [3]; ratio vs YK-405): 1.95 | RLU value, times that of YK-406 (293T cells [3]; ratio vs YK-406): 79.58 | RLU value, times that of YK-408 (293T cells [3]; ratio vs YK-408): 4.22 | RLU value, times that of YK-409 (293T cells [3]; ratio vs YK-409): 9.30 | RLU value, times that of YK-410 (293T cells [3]; ratio vs YK-410): 15.27 | cell transfection efficiency, times that of YK-412 (293T cells [3]; ratio vs YK-412): 1.85 | cell transfection efficiency, times that of YK-413 (293T cells [3]; ratio vs YK-413): 4.52 | cell transfection efficiency, times that of YK-414 (293T cells [3]; ratio vs YK-414): 14.02 | cell transfection efficiency, times that of YK-416 (293T cells [3]; ratio vs YK-416): 1.57 | cell transfection efficiency, times that of YK-419 (293T cells [3]; ratio vs YK-419): 1.97 | cell transfection efficiency, times that of YK-420 (293T cells [3]; ratio vs YK-420): 1.55 | cell transfection efficiency, times that of YK-421 (293T cells [3]; ratio vs YK-421): 13.35 | transfection efficiency at different molar ratios of polymer-conjugated lipid DMG-PEG2000 to carrier (293T cells [4]; 0.5% to 15%): same results | transfection effect at different molar ratios of cationic lipid, neutral lipid, structured lipid and polymer-conjugated lipid (293T cells [4]; 75:5:15:5 to 25:5:65:5): same results | Cell survival rate (293T cells [5]; LNP with 1.5 μg Fluc-mRNA, 24 hours, CCK-8): 71.14% | cell survival rate higher than ALC-0315 (293T cells [5]; difference vs ALC-0315): 23.93% | cell survival rate higher than HIMA (293T cells [5]; difference vs HIMA (HHMA)): 6.87% | cell survival rate higher than Lipofectamine 3000 (293T cells [5]; difference vs Lipofectamine 3000): 49.48% | cell survival rate higher than SM-102 (293T cells [5]; difference vs SM-102): 3.24% | cell survival rate higher than YK-404 (293T cells [5]; difference vs YK-404): 29.02% | cell survival rate higher than YK-405 (293T cells [5]; difference vs YK-405): 29.28% | cell survival rate higher than YK-406 (293T cells [5]; difference vs YK-406): 46.18% | cell survival rate higher than YK-408 (293T cells [5]; difference vs YK-408): 28.83% | cell survival rate higher than YK-409 (293T cells [5]; difference vs YK-409): 25.03% | cell survival rate higher than YK-410 (293T cells [5]; difference vs YK-410): 26.22% | cell survival rate higher than YK-411 (293T cells [5]; difference vs YK-411): 54.81% | cell survival rate higher than YK-412 (293T cells [5]; difference vs YK-412): 17.00% | cell survival rate higher than YK-413 (293T cells [5]; difference vs YK-413): 23.94% | cell survival rate higher than YK-414 (293T cells [5]; difference vs YK-414): 42.39% | cell survival rate higher than YK-415 (293T cells [5]; difference vs YK-415): 9.98% | cell survival rate higher than YK-416 (293T cells [5]; difference vs YK-416): 30.17% | cell survival rate higher than YK-417 (293T cells [5]; difference vs YK-417): 49.80% | cell survival rate higher than YK-418 (293T cells [5]; difference vs YK-418): 50.09% | cell survival rate higher than YK-419 (293T cells [5]; difference vs YK-419): 32.22% | cell survival rate higher than YK-420 (293T cells [5]; difference vs YK-420): 35.55% | cell survival rate higher than YK-421 (293T cells [5]; difference vs YK-421): 35.43% | cell survival rate higher than YK-424 (293T cells [5]; difference vs YK-424): 43.21% | cell survival rate higher than compound 21 (293T cells [5]; difference vs compound 21): 3.30% | cell survival rate higher than compound 23 (293T cells [5]; difference vs compound 23): 2.03% | cytotoxicity reduced compared with YK-411 (293T cells [5]; rounded summary statement vs YK-411): 50%
